Measurements from patent US5130300A, “Method for enhancing growth of mammary parenchyma” (Monsanto Company, priority 1987, dated 1992).

Assays:
[1] = tested on: Quarter-Udders in Pregnant Beef Cattle; assay: Intramammary infusion of prostaglandin E1 or E2, quarter-udder weights and DNA (Examples 25-28); format: in vivo, cross-bred beef cows; conditions: for DNA, % Increase, (A-B)/B / DNA, Mean Increase (A-B) / Dry Weight, % Increase, (A-B)/B / Dry Weight, Mean Increase (A-B) / Wet Weight, % Increase, (A-B)/B / Wet Weight, Mean Increase (A-B) / Dry Fat-Free Weight, % Increase, (A-B)/B / Dry Fat-Free Weight, Mean Increase (A-B): B = excipient only
Protocol: 24 pregnant, non-lactating, cross-bred beef cows in their last 45-105 days of gestation were housed in a free-stall facility, fed a ration of alfalfa hay and pelleted concentrate, and administered 5 ml of an excepient (MCT-Oil, a Mead Johnson Corp. medium chain triglyceride which is a lipid fraction of coconut oil consisting primarily of triglycerides of C8 and C10 fatty acids as follows: C8 -67%; C10 -23%; <C8 -6%; >C10 -4%) into each quarter-udder by intramammary infusion through the streak cannal on days 1, 3, 5, 7 and 9 of this study. The 48 front and rear udder halves were randomly divided into 4 groups, with one quarter of each udder half treated and its laterally opposite quarter-udder used as a control. In the treatment infusions, the excipient contained Prostaglandin (PG) E1 or E2 from Sigma Chemical Co., St. Louis, Mo. (Catalog Nos. 86F-0406 and -0404). The amounts of PG in each infusion were: Group 1-87.5 micrograms of E2; Group 2-875 micrograms of E2; Group 3-87.5 micrograms of E1; Group 4-875 micrograms of E1. Animals were prepared and infused as in Examples 23-24; the effects were determined as in Examples 1-2. Results for Groups 1-4 are in Tables 15-18, respectively.

[2] = tested on: Quarter-Udders in Pregnant Beef Cows; assay: Intramammary infusion of hEGF or mEGF, quarter-udder weights and DNA (Examples 1-2); format: in vivo, cross-bred beef cows; conditions: 25 micrograms per infusion, days 1,3,5,7,9, Freund's emulsion
Protocol: 12 pregnant, non-lactating, cross-bred beef cows within their last 40-80 days of gestation were housed in a free-stall facility, fed a ration of alfalfa hay and pelleted concentrate, and administered 10 ml of an excipient (Freund's Incomplete Adjuvant emulsified with an equal volume of 0.9% sterile saline) into each quarter-udder by intramammary infusion through the streak canal on days 1, 3, 5, 7 and 9 of this study. Infusions were carried out using a 3.2 centimeter long, approximately 12 gauge, blunt-tipped plastic teat infusion cannula obtained from Jorgensen Laboratories, Loveland, Colo. Because front and rear udder halves are not of equal size, treatment vs. control comparisons were made between laterally opposite quarters, i.e., front right vs. front left and rear right vs. rear left. Treatments were randomly assigned to right or left udder-halves, with the contralateral half serving as its control. […] (the other 6 animals).
Prior to treatment, each animal was teatdipped for 3 consecutive days and each teat was pre-cleaned with 70% ethanol in water on the day of treatment. On day 14 the cows were sacrificed and their mammary glands excised. Each udder (milked out if necessary) was skinned, divided along the median suspensory ligament and then into front right, front left, rear right and rear left udder quarters. Each quarter-udder was ground, a representative 200 gm sample was homogenized with 4 times its volume of water, and the total homogenate volume of each was measured.
To determine dry weight of each quarter-udder, three 10 ml aliquots of a 1:5 diluted homogenate were placed in pre-weighed pans, dried overnight at 60° and then dried and weighed to a consistent value.
To determine dry fat-free tissue weight of each quarter-udder, three 5 ml aliquots of the undiluted homogenate were extracted by the method of Anderson, 41 J. Anim. Sci. 118 (1975) except that samples were placed in pre-weighed 25×150 mm glass centrifuge tubes and extracted overnight with 10 ml ethanol:ether (3:1), then centrifuged (5 min at 500 rpm) and the supernatant aspirated; an additional 10 ml aliquot of ethanol:ether was added for a second extraction; and the sample was dried under nitrogen until a consistent value was obtained.
DNA in each quarter-udder was determined by the method of Burton, 12B Methods in Enzymol. 163-66 (1968) using an assay solution of 15% trichloroacetic acid (TCA) in 2N HCl. In these determinations, aliquots of gland homogenate were diluted 1:5 with water and rehomogenized. Using triplicate 0.25 ml or 0.5 ml aliquots of these homogenates, each aliquot was mixed with 2 ml of the assay solution. After 30 min, the samples were centrifuged for 10 min at 3000 rpm and the resulting pellets were washed with 2 ml of a 10% solution of TCA in distilled water. After recentrifugation, the resulting pellets were disrupted in 2 ml of 0.5N perchloric acid and heated for 30 min at 70° to extract DNA. Samples were centrifuged and 1 ml of each resulting supernatant was placed in a 12×75 mm tube. After addition of 2 ml of a solution of 1.5 g diphenylamine and 1.5 ml H2 SO4 in 100 ml glacial acetic acid (and 0.1 ml of 1.6% aqueous acetaldehyde per 20 ml reagent just prior to use), the samples were vortexed and incubated overnight at 27°. Calf thymus DNA was the standard.

[3] = total of 0.4375 milligrams (87.5 micrograms per infusion) in MCT-Oil
[4] = total of 0.4375 milligrams in MCT-Oil
[5] = total of 4.375 milligrams (875 micrograms per infusion) in MCT-Oil
[6] = total of 4.375 milligrams in MCT-Oil
[7] = B = opposite quarter, excipient only

Molecule	DNA, Treatment Mean [1, 3] [mg]	Dry Fat-Free Weight, Treatment Mean [1, 3] [g]	Dry Weight, Treatment Mean [1, 3] [g]	Wet Weight, Treatment Mean [1, 3] [g]	DNA, % Increase, (A-B)/B [1, 4] [%]	DNA, Mean Increase (A-B) [1, 4] [mg]	Dry Weight, % Increase, (A-B)/B [1, 4] [%]	Dry Weight, Mean Increase (A-B) [1, 4] [g]	Wet Weight, % Increase, (A-B)/B [1, 4] [%]	Wet Weight, Mean Increase (A-B) [1, 4] [g]	DNA, Treatment Mean [1, 5] [mg]	Dry Fat-Free Weight, Treatment Mean [1, 5] [g]	Dry Weight, Treatment Mean [1, 5] [g]	Wet Weight, Treatment Mean [1, 5] [g]	DNA, % Increase, (A-B)/B [1, 6] [%]	DNA, Mean Increase (A-B) [1, 6] [mg]	Dry Fat-Free Weight, % Increase, (A-B)/B [1, 6] [%]	Dry Fat-Free Weight, Mean Increase (A-B) [1, 6] [g]	Dry Weight, % Increase, (A-B)/B [1, 6] [%]	Dry Weight, Mean Increase (A-B) [1, 6] [g]	also measured
CCCCC[C@H](O)/C=C/[C@H]1[C@H](O)CC(=O)[C@@H]1CCCCCCC(=O)O [Prostaglandin E1, [11α,13E,15S]-11,15-Dihydroxy-9-oxoprost-13-en-1-oic acid]	2881	180.9	259.3	972.5	26	597	23.0	48.7	25.0	194.5	4218	247.7	379.6	1435.5	51.1	1426	31.0	58.7	41.5	111.4	Wet Weight, % Increase, (A-B)/B [1, 6]: 51.2%; Wet Weight, Mean Increase (A-B) [1, 6]: 486.2 g
CCCCC[C@H](O)/C=C/[C@H]1[C@H](O)CC(=O)[C@@H]1C/C=C\CCCC(=O)O [Prostaglandin E2, [5Z,11α,13E,15S]-11,15-Dihydroxy-9-oxoprosta-5,13-dien-1-oic acid]	5203	351.8	525.5	1966.9	10.1	479	8.3	40.6	13.3	231.4	3397	194.5	312.7	1030.8	44.6	1049	34.8	50.2	42.8	93.7	Dry Fat-Free Weight, % Increase, (A-B)/B [1, 4]: 18.1%; Dry Fat-Free Weight, Mean Increase (A-B) [1, 4]: 54.0 g; Wet Weight, % Increase, (A-B)/B [1, 6]: 38.9%; Wet Weight, Mean Increase (A-B) [1, 6]: 288.8 g
mEGF: mouse EGF, culture-grade, from mouse submaxillary glands, Collaborative Research Corp. Catalog No. 40001 (NSYPGCPSSYDGYCLNGGVCMHIESLDSYTCNCVIGYSGDRCQTRDLRWWELR; not fully specified; Epidermal growth factor; UniProt P01132 977-1029, looked up)	–	–	–	–	–	–	–	–	–	–	–	–	–	–	–	–	–	–	–	–	DNA, % Increase, (A-B)/B [2, 7]: 13.8%; DNA, Mean Increase (A-B) [2, 7]: 110.2 mg; Dry Fat-Free Weight, % Increase, (A-B)/B [2, 7]: 7.9%; Dry Fat-Free Weight, Mean Increase (A-B) [2, 7]: 5.0 g; Dry Weight, % Increase, (A-B)/B [2, 7]: 1.6%; Dry Weight, Mean Increase (A-B) [2, 7]: 2.3 g; Wet Weight, % Increase, (A-B)/B [2, 7]: 4.4%; Wet Weight, Mean Increase (A-B) [2, 7]: 17.6 g; DNA, Treatment Mean ([2]; day 14): 905.1 mg; Dry Fat-Free Weight, Treatment Mean ([2]; day 14): 69.6 g; Dry Weight, Treatment Mean ([2]; day 14): 150.2 g; Wet Weight, Treatment Mean ([2]; day 14): 419.6 g; DNA, Avg % Increase/Animal ([2]; vs excipient-only quarter): 12.0%; Dry Fat-Free Weight, Avg % Increase/Animal ([2]; vs excipient-only quarter): 5.2%; Dry Weight, Avg % Increase/Animal ([2]; vs excipient-only quarter): 2.1%; Wet Weight, Avg % Increase/Animal ([2]; vs excipient-only quarter): 1.8%
